Measurements from ChEMBL document CHEMBL4371036, “Discovery and structure-activity relationship of imidazolinylindole derivatives as kallikrein 7 inhibitors” (Bioorg Med Chem Lett, 2019).

Experiments:
Kallikrein-7 [1] = molecular target: Kallikrein-7 (Homo sapiens, UniProt P49862); assay: Inhibition of thermolysin activated recombinant human C-terminal 10-His tagged KLK7 (E23 to H252 residues) using MOCAc-Arg-Pro-Lys-Pro-Val-Glu-Nva-Trp-Arg-Lys(Dnp)-NH2 as substrate preincubated for 10 mins followed by substrate addition and measured after 30 mins by fluorescence analysis
Kallikrein-7 (Homo sapiens, UniProt P49862), sequence (P49862 whole entry, the tested form may be a part): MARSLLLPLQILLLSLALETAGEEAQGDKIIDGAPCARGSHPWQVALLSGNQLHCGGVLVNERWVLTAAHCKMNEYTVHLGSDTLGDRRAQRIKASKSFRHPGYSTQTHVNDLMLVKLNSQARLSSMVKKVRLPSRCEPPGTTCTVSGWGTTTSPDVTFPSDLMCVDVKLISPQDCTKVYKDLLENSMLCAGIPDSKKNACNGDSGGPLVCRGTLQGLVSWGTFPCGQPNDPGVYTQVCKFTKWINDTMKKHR

Kallikrein-7 [2] = molecular target: Kallikrein-7 (Mus musculus, UniProt Q91VE3); assay: (§1) Inhibition of enterokinase activated recombinant mouse C-terminal His6-tagged KLK7 (Gln22 to Arg249 residues) using MOCAc-Arg-Pro-Lys-Pro-Val-Glu-Nva-Trp-Arg-Lys(Dnp)-NH2 as substrate preincubated for 10 mins followed by substrate addition and measured after 30 mins by fluorescence analysis
Kallikrein-7 (Mus musculus, UniProt Q91VE3), sequence (Q91VE3 whole entry): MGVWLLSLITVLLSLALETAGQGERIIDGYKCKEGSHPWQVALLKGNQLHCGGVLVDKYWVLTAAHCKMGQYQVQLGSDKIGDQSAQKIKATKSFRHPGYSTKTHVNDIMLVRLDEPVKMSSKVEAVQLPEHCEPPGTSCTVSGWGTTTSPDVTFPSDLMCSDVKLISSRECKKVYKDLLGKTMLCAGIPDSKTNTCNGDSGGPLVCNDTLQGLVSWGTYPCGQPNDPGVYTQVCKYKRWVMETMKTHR

[3] = molecular target: Kallikrein-7 (Mus musculus) (UniProt Q91VE3); assay: as §1, with “residues) at 100 uM” for “residues)”, “analysis relative to control” for “analysis”
Kallikrein-7 (Mus musculus), sequence (Q91VE3 whole entry): as above

Row | Compound | IC50 (Kallikrein-7 [1]) | IC50 (Kallikrein-7 [2]) | inhibition [3]
1 | CC1=NC(c2cn(S(=O)(=O)c3ccc(Cl)cc3)c3ccc(C)cc23)CN1 (configuration not stated) | 1.9 µM | > 100 µM | 33%
2 | CCC1=NC(c2cn(S(=O)(=O)c3ccc(C)cc3)c3ccccc23)CN1 (configuration not stated) | 24 µM | – | –
3 | CC1=NC(c2cn(S(=O)(=O)c3ccc(C)cc3)c3ccccc23)CN1 (configuration not stated) | 10 µM | – | 14%
4 | CC1=NC(c2cn(S(=O)(=O)c3ccccc3F)c3ccc(C)cc23)CN1 (configuration not stated) | 4.1 µM | 6.4 µM | –
5 | CC1=NC(c2cn(S(C)(=O)=O)c3ccccc23)CN1 (configuration not stated) | > 100 µM | – | –
6 | CC1=NC(c2cn(S(=O)(=O)c3ccccc3)c3ccc(C)cc23)CN1 (configuration not stated) | 17 µM | 15 µM | –
7 | CC1=NC(c2cn(S(=O)(=O)c3ccc(Cl)cc3)c3ccccc23)CN1 (configuration not stated) | 5.7 µM | – | 17%
8 | CC1=NC(c2cn(S(=O)(=O)c3cccs3)c3ccc(C)cc23)CN1 (configuration not stated) | 11 µM | 22 µM | –
9 | CC1=NC(c2cn(Cc3ccc(Cl)cc3)c3ccccc23)CN1 (configuration not stated) | 22 µM | – | –

The remaining lines, values ahead:

Row | IC50 (Kallikrein-7 [1]) | IC50 (Kallikrein-7 [2]) | inhibition [3] | Compound
10 | 0.39 µM | 0.4 µM | – | CC1=NC(c2cn(S(=O)(=O)c3ccccc3Br)c3ccc(C)cc23)CN1 (configuration not stated)
11 | 9.4 µM | > 30 µM | – | CC1=NC(c2cn(S(=O)(=O)c3ccc(F)cc3)c3ccc(C)cc23)CN1 (configuration not stated)
12 | 30 µM | 10 µM | – | CC1=NC(c2cn(S(=O)(=O)c3cccc(Cl)c3)c3ccc(C)cc23)CN1 (configuration not stated)
13 | > 30 µM | – | – | CC1=NC(c2cn(S(=O)(=O)c3ccc(Cl)cc3)c3ccccc23)CN1C (configuration not stated)
14 | 4.7 µM | – | 35% | CC1=NC(c2cn(S(=O)(=O)c3ccc(Cl)cc3)c3ccc(Br)cc23)CN1 (configuration not stated)
15 | 1 µM | 1.3 µM | – | CC1=NC(c2cn(S(=O)(=O)c3ccccc3C)c3ccc(C)cc23)CN1 (configuration not stated)
16 | 6.7 µM | 11 µM | – | CC1=NC(c2cn(S(=O)(=O)c3ccccc3C#N)c3ccc(C)cc23)CN1 (configuration not stated)
17 | 1.2 µM | 1.5 µM | – | CC1=NC(c2cn(S(=O)(=O)c3ccccc3Cl)c3ccc(C)cc23)CN1 (configuration not stated)
18 | > 100 µM | – | – | Cc1ccc(S(=O)(=O)n2cc(C3CNC(C4CCCCC4)=N3)c3ccccc32)cc1 (configuration not stated)
19 | 70 µM | – | – | Cc1ccc(S(=O)(=O)n2cc(C3CNC(C(C)C)=N3)c3ccccc32)cc1 (configuration not stated)
20 | > 30 µM | – | 77% | CC1=NC(c2cn(S(=O)(=O)c3cccc(Cl)c3)c3ccccc23)CN1 (configuration not stated)
21 | 14 µM | 10 µM | – | CC1=NC(c2cn(S(=O)(=O)c3c(Cl)cccc3Cl)c3ccc(C)cc23)CN1 (configuration not stated)
